These results are taken from PMC2288786 (BMC Structural Biology, 2008).

For series [1], the system named is CaM. The series is described as follows: Affinity chromatography of human brain MBP on CaM-sepharose. Type of series: binding. As to the method: Calcium-dependent affinity chromatography of human MBP on CaM-sepharose (GE Healthcare) was carried out as follows: 200 μg of lyophilized human brain MBP were dissolved in 50 mM HEPES pH 7.5, 150 mM NaCl, 2 mM CaCl2. The same buffer that was used to equilibrate 100 μl of the CaM-sepharose matrix. The sample was mixed with the matrix and washed with 5 ml of the above buffer. Elution was done with 1.4 ml of 50 mM HEPES pH 7.5, 150 mM NaCl, 2 mM EGTA. The fractions were applied on a 18% SDS-PAGE gel. To detect which isoforms were bound to CaM-sepharose, fractions 2 (wash) and 7 (EGTA elution) were purified with Vivapure® C18 Micro spin columns prior to analysis by mass spectrometry. MALDI-ToF mass spectrometry was performed with a Voyager-DE STR Biospectrometry Workstation (Applied Biosystems). 1 μl of the protein sample was spotted on sinapinic acid matrix.

Series [2] has as its target T1, CaM (Rattus norvegicus, UniProt P0DP29).
T1 construct: made in house; host or cells: E. coli Rosetta (DE3)
The series can be described thus: Far-UV circular dichroism, k2d secondary structure deconvolution. The settings on record: k2d deconvolution of CD spectrum, +20°C, 10 mM HEPES pH 7.5, 150 mM NaCl, 4 mM CaCl2; CaM 0.050 mg/ml, peptide 0.030 mg/ml. Type of series: physicochemical, vertebrate. As to the method:
The spectra were corrected by subtracting the spectrum of a buffer sample (10 mM HEPES pH 7.5, 150 mM NaCl, 4 mM CaCl2). Noise reduction was applied to smooth the data with the Jasco software. The spectra are presented as mean residue ellipticity (θ), calculated by using the molar concentration of peptide or protein and multiplying by the appropriate number of peptide bonds. […] Secondary structure contents of the samples were estimated with the program […] [26].

Series [3] has as its target T1, CaM. The series can be described thus: Size exclusion chromatography of CaM with and without MBP peptide. The settings on record: Superdex 75, free CaM. Type of series: binding, vertebrate.
Procedure: Gel filtration chromatography with the ÄKTApurifier system (Pharmacia Biotech) was used to investigate the difference in the behaviour of CaM in the presence and absence of the MBP peptide. A Superdex 75 HR 10/30 column (Amersham Pharmacia Biotech) was equilibrated with 50 mM HEPES buffer pH 7.5, 150 mM NaCl, 4 mM CaCl2. The experiments were run at a flow rate of 0.5 ml/min, the injection volumes were 250 μl, the concentration of CaM was 0.8 mM, and the concentration of the peptide was 4 mM.
In series [4] the target is T1, CaM. The series can be described thus: Isothermal titration calorimetry of MBP peptide binding to CaM. Also on record: species or system vertebrate. As to the method: The peptide was dissolved in 50 mM HEPES pH 7.5, 20 mM CaCl2 and stored at -20°C. […] Native MBP protein isolated using the chloroform extraction method from post-mortem human brain was obtained from FermLab (Turku, Finland).
The samples for the experiment were extensively dialysed against 50 mM HEPES pH 7.5, 20 mM CaCl2 and degassed in an ultrasonic water bath. […] The first injection of 2 μl was followed by 19 15-μl injections of the peptide. The experiment was carried out at +25, +30, +35, and +40°C. The dilution heat was measured by titrating the buffer with the 1 mM peptide solution. […] The raw data were fitted by non-linear least squares minimisation with models for both a single site and four binding sites (see Results), using the Origin version 5.0 software (MicroCal).
For orientation: ITC needs no label: the signal is the heat of the interaction.

The target in series [5] is T1, CaM. The series is described as follows: Surface plasmon resonance, peptide over immobilised CaM. Type of series: binding, vertebrate. As to the method: SPR assays were performed with a Biacore 3000 instrument (Biacore AB, Uppsala, Sweden). […] Binding of the peptide was tested in 10 mM HEPES pH 7.5, 150 mM NaCl, 4 mM CaCl2 containing 0.005% P-20 surfactant (Biacore AB), at a flow rate of 30 μl/min. Various concentrations of the peptide (2.5–200 μM) were injected in duplicate over both of the flow cells for 3 min, and a 6-min dissociation phase followed each injection. The surfaces were regenerated with a 20-s injection of 10 mM EDTA and another 10-s injection of 20 mM NaOH at a flow rate of 30 μl/min prior to the next injection cycle. The BIAevaluation software version 3.1 (Biacore AB) was used to analyse the data. […] Furthermore, a sensorgram of the injection of buffer alone was subtracted from the data. The data were analysed using the various interaction models available in the software, including the mass transfer model. The only model giving a reasonable fit to the data was the conformational change model (see Results).
A 20-μM solution of the peptide in the running buffer was injected over the flow cells of the CaM-coated sensor chip at a flow rate of 30 μl/min, using different injection times (1, 3, and 20 min). Each injection was followed by a 15-min dissociation time. The surface was regenerated and the data were treated as above.
On the technique in general: Surface plasmon resonance follows binding to a sensor surface in real time, without labels.

Where no end group is shown, it is not given here.

Consider “myelin basic protein (HKGFKGVDAQGTLSKIFKL) [MBP, Native MBP protein isolated using the chloroform extraction method from post-mortem human brain; 17.2- and 18.5-kDa isoforms]”, for which the “binding to CaM-sepharose in presence of calcium” value in series [1] (50 mM HEPES pH 7.5, 150 mM NaCl, 2 mM CaCl2) is reported as “retained in the affinity matrix”. In addition, in series [1] (50 mM HEPES pH 7.5, 150 mM NaCl, 2 mM EGTA), the “release from CaM-sepharose by EGTA” value is on record as “released”. For the same substance, the “MBP isoforms in EGTA eluate” value in series [1] (MALDI-ToF mass spectrometry) is 17.2 and 18.5 kDa, were both present in the EGTA eluate.

Turning to calmodulin [CaM], in series [2], the Random coil content turned out to be 0.12, the α-Helix content is recorded as 0.88 and the β-Sheet content amounted to 0. Further, the “apparent molecular weight in gel filtration” value in series [3] was “approximately 30 kDa”.

For HKGFKGVDAQGTLSKIFKL [MBP peptide], the Kd (commonly the free concentration of one partner at which half of the binding sites on the other are occupied at equilibrium, for simple one-to-one binding) in series [4] worked out at 25.9 µM; in series [4] (25°C (298.15 K), fit to the specific binding site only (one site, peaks 2–7), 1.0 mM peptide into 0.10 mM CaM, 50 mM HEPES pH 7.5, 20 mM CaCl2), 3.4 µM; in series [4] (30°C (303.15 K), fit to the specific binding site only (one site, peaks 2–7), 1.0 mM peptide into 0.10 mM CaM, 50 mM HEPES pH 7.5, 20 mM CaCl2), 2.3 µM; in series [4] (35°C (308.15 K), fit to the specific binding site only (one site, peaks 2–7), 1.0 mM peptide into 0.10 mM CaM, 50 mM HEPES pH 7.5, 20 mM CaCl2), 1.9 µM; in series [5], 58 µM. The Kd in words result in series [4] (ITC, different temperatures) is given as “low μM range”.
